Here are results for 4 compounds from US20250073177A1, “LIPID NANOPARTICLES FOR OLIGONUCLEOTIDE DELIVERY” (ZIPHIUS NV, priority 2021, published 2025).

Data set [1] in a line: LNP particle size, polydispersity index and charge by Zeta Sizer. The format is physicochemical. Conditions: LNP lipid:DOPE:Cholesterol:DMG-PEG 35:20:43.5:1.5, N/P about 40/1, firefly luciferase saRNA. The method, then:
Cationic lipids, DOPE, Cholesterol and DMG-PEG lipid were solubilized in ethanol or DMSO at a molar ratio of 35:20:43.5:1.5 and a concentration of 100:25:20:25 μg/μL for C12-200 or 170:25:20:25 μg/μL for the comparator lipids. Lipid nanoparticles (LNP) were prepared by targeting an N/P ratio of approximately 40/1 with saRNA. Briefly, the firefly luciferase saRNA of approximately 9659 nucleotides was diluted to 0.5 mg/mL in 5 mM citrate buffer, pH 4.5. Microfluidic mixer (Ignite from Precision Nanosystems, California, USA) was used to mix the lipid solution with the saRNA aqueous solution at a ratio of about 1:3 (vol/vol) with total flow rates above 10 ml/min. The ethanol was then removed, and the external buffer replaced with 10 mM TRIS-HCL, PH 7.4, by dialysis. Finally, the lipid nanoparticles were filtered through a 0.2 μm pore sterile filter. Lipid nanoparticle particle size was 50-150 nm diameter and polydispersity index (PI) of 0.1-0.4 as determined by Zeta Sizer (Malvern Panalytical, UK). The charge of the formulation was also measured by Zeta Sizer and ranged between 20 to −20 mV.

Data set [2] is described as follows: Body weight of mice after injection of LNP-formulated luciferase saRNA. The format is in vivo. The settings on record: 1 μg luciferase saRNA in LNP. How it is done:
(§1) Female SWISS mice (6 weeks old) were purchased from Janvier Laboratories (Paris, France) and kept in individually ventilated cages with access to food and water ad libitum. Mice were anesthetized with isoflurane (Zoetis, Louvain-La-Neuve, Belgium) (5% for induction and 2% for maintenance) and intramuscularly injected with a total of 1 μg in 100 μL Tris-HCL (50 μL per leg) LNP-formulated luciferase saRNA (for each group n=7). The expression of the luciferase induced bioluminescence was measured via non-invasive In vivo bioluminescent imaging (In vivo Imaging System (IVIS) Lumina III, Perkin Elmer, Waltham, Massachusetts, USA), 10 minutes after subcutaneous injection of 200 μL of D-luciferin (GoldBio, Saint Louis, Missouri, USA, #LUCK-1G) were measured in day 0 (before injection), day 1, day 3, day 5, day 7, day 10, day 15 and day 20.
See Tables 4 and FIG. 1 for the results showing higher expression of the saRNA compared to prior art compounds at day 15 onwards when administered in LNPs comprising compounds of the invention. Table 5 supports good tolerability of the compounds of the invention.

Data set [3] can be described thus: saRNA encapsulation in LNP, Quant-IT RiboGreen assay. Conditions: LNP with firefly luciferase saRNA, RiboGreen with or without Triton X-100. The format is physicochemical. How it is done: The saRNA loading in LNP formulations was quantified using a Quant-IT RiboGreen assay (Thermo Fisher Scientific, Waltham, Massachusetts, USA) as previously described. 14 samples were diluted tenfold in 1×Tris HCL-EDTA (TE) buffer (10 mM Tris-HCL, 1 mM EDTA, pH 7.5) with or without 2% (v/v) Triton X-100 (Sigma-Aldrich, Saint Louis, Missouri, USA). Standard solutions were also prepared in 1×TE with or without 2% (v/v) Triton X-100 to account for any variation in fluorescence. The assay was performed according to the manufacturer's protocol. Samples were loaded on a black 96-well plate and analysed for fluorescence on a microplate reader (Tecan Infinite® 200 PRO) at an excitation of 485 nm and emission at 528 nm. Encapsulation efficiency was calculated between 80-100%. See Table 3 below for the results obtained.

The subject of the next data set is Female SWISS mice. Kind of data set: In vivo bioluminescent imaging of LNP-formulated luciferase saRNA expression. The settings on record: 1 μg luciferase saRNA in LNP. The method, then:
as §1

Setting [4] is: Day 0 (before injection), intramuscular.

As for `CCCCCCCCCCCCCCOC(=O)CCN(CCC(=O)OCCCCCCCCCCCCCC)CCN1CCN(CCN(CCC(=O)OCCCCCCCCCCCCCC)CCC(=O)OCCCCCCCCCCCCCC)CC1` [Comparator 1, reference compound], the “Polydispersity Index (PI)” value in data set [1] is 0.16. In addition, in data set [1], the Z-average is on record as 70.96 nm. In addition, the Zetapotential in data set [1] was determined as 9.07 mV. Moreover, the Weight in data set [2] (setting [4]) turned out to be 26.56 g; in data set [2] (Day 1, intramuscular) it was 25.99 g; in data set [2] (Day 3, intramuscular), 27.21 g; in data set [2] (Day 5, intramuscular), 27.59 g; in data set [2] (Day 7, intramuscular), 27.09 g; in data set [2] (Day 10, intramuscular) it was 27.17 g. Moreover, the Weight amounted to 29.43 g in data set [2] (Day 15, intramuscular) and 30.11 g in data set [2] (Day 20, intramuscular). Further, the Encapsulation in data set [3] worked out at 99.03%.

On to `CCCCCCC(CCCC)C(=O)NCCN1CCN(CCN(CCCCOC(=O)C(CCCC)CCCCCC)CCCCOC(=O)C(CCCC)CCCCCC)CC1` (stereo not shown) [Compound 8-27, ((2-(4-(2-(2-butyloctanamido)ethyl)piperazin-1-yl)ethyl)azanediyl)bis(butane-4,1-diyl) bis(2-butyloctanoate)], for which the “Polydispersity Index (PI)” value in data set [1] worked out at 0.16. The Z-average in data set [1] was 85.72 nm. In data set [1], this compound came in with a Zetapotential of −12.65 mV. The Weight in data set [2] (setting [4]) turned out to be 27.07 g; in data set [2] (Day 1, intramuscular), 26.01 g; in data set [2] (Day 3, intramuscular), 27.57 g; in data set [2] (Day 5, intramuscular) it was 28.86 g; in data set [2] (Day 7, intramuscular), 28.40 g; in data set [2] (Day 10, intramuscular) it was 28.67 g. Also, the Weight in data set [2] (Day 15, intramuscular) was 29.44 g; in data set [2] (Day 20, intramuscular), 30.57 g. The “Bioluminescence expression of LNPs” value in the data set on Female SWISS mice (setting [4]) was 8.55E+04; in the data set with Female SWISS mice (Day 1, intramuscular), 1.40E+08; with Female SWISS mice (Day 3, intramuscular), 9.90E+08; in the data set on Female SWISS mice (Day 5, intramuscular), 7.71E+08; in the data set with Female SWISS mice (Day 7, intramuscular) it was 2.35E+08; in the data set with Female SWISS mice (Day 10, intramuscular) it was 6.86E+06. Besides, the “Bioluminescence expression of LNPs” value with Female SWISS mice (Day 15, intramuscular) was 7.44E+05; in the data set with Female SWISS mice (Day 20, intramuscular), 8.29E+05. Besides, the Encapsulation in data set [3] worked out at 98.64%.

With `CCCCCCC(CCCC)C(=O)OCCCCN(CCCCOC(=O)C(CCCC)CCCCCC)CCN1CCN(CCOC(=O)C(CCCC)CCCCCC)CC1` (stereo not shown) [Compound 8-41, ((2-(4-(2-((2-butyloctanoyl)oxy)ethyl)piperazin-1-yl)ethyl)azanediyl)bis(butane-4,1-diyl) bis(2-butyloctanoate)], the “Polydispersity Index (PI)” value in data set [1] came to 0.23. Besides, the Z-average in data set [1] amounted to 81.44 nm. In data set [1], this compound yielded a Zetapotential of −20.01 mV. Also, the Weight is on record as 28.03 g in data set [2] (setting [4]); 27.31 g in data set [2] (Day 1, intramuscular); 28.49 g in data set [2] (Day 3, intramuscular); 29.04 g in data set [2] (Day 5, intramuscular); 28.69 g in data set [2] (Day 7, intramuscular); 29.24 g in data set [2] (Day 10, intramuscular). Further, the Weight amounted to 30.24 g in data set [2] (Day 15, intramuscular) and 31.19 g in data set [2] (Day 20, intramuscular). Further, the “Bioluminescence expression of LNPs” value is recorded as 5.33E+04 with Female SWISS mice (setting [4]); 5.42E+07 with Female SWISS mice (Day 1, intramuscular); 7.43E+08 in the data set with Female SWISS mice (Day 3, intramuscular); 6.54E+08 in the data set with Female SWISS mice (Day 5, intramuscular); 4.67E+08 in the data set on Female SWISS mice (Day 7, intramuscular); 9.17E+06 with Female SWISS mice (Day 10, intramuscular). The “Bioluminescence expression of LNPs” value in the data set on Female SWISS mice (Day 15, intramuscular) amounted to 1.88E+06; with Female SWISS mice (Day 20, intramuscular) it was 1.88E+06. This compound displayed an Encapsulation in data set [3] of 99.04%.

In the case of `CCCCCCCCCCC(O)CN(CCN1CCN(CCN(CC(O)CCCCCCCCCC)CC(O)CCCCCCCCCC)CC1)CCN(CC(O)CCCCCCCCCC)CC(O)CCCCCCCCCC` (stereo not shown) [Compound C12-200, 1,1′-((2-(4-(2-((2-(bis (2-hydroxydodecyl)amino)ethyl) (2-hydroxydodecyl)amino)ethyl)piperazin-1-yl)ethyl)azanediyl)bis (dodecan-2-ol), reference compound], in data set [1], the “Polydispersity Index (PI)” value came out at 0.10. In data set [1], this compound came in with a Z-average of 81.42 nm. In data set [1], this compound returned a Zetapotential of 2.78 mV. In addition, the Weight in data set [2] (setting [4]) was found to be 28.61 g; in data set [2] (Day 1, intramuscular), 27.17 g; in data set [2] (Day 3, intramuscular), 28.62 g; in data set [2] (Day 5, intramuscular) it was 28.98 g; in data set [2] (Day 7, intramuscular), 28.97 g; in data set [2] (Day 10, intramuscular), 29.23 g. For the same compound, the Weight in data set [2] (Day 15, intramuscular) stood at 30.16 g; in data set [2] (Day 20, intramuscular) it was 31.23 g. Also, the Encapsulation in data set [3] was determined as 100.49%.
